Data published in ChEMBL document CHEMBL1152720, “Discovery and SAR of para-alkylthiophenoxyacetic acids as potent and selective PPARdelta agonists” (Bioorg Med Chem Lett, 2009).

Columns and labels:
[1] = molecular target: T1, Peroxisome proliferator-activated receptor gamma (Homo sapiens, UniProt P37231); test: Activity at PPARgamma
T1 sequence (P37231 whole entry): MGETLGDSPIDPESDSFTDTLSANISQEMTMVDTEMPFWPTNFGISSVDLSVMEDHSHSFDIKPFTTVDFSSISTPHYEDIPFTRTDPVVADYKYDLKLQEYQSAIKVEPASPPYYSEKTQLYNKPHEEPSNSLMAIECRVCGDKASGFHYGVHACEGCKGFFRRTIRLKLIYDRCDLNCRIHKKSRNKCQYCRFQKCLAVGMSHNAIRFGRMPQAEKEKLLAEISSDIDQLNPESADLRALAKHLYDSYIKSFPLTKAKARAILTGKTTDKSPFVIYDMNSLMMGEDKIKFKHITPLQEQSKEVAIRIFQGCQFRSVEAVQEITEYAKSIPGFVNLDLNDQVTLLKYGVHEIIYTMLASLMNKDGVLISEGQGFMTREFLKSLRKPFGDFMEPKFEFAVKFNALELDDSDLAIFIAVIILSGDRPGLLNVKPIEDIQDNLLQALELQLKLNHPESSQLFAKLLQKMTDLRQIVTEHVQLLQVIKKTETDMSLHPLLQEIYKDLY

[2] = molecular target: T2, Peroxisome proliferator-activated receptor alpha (Homo sapiens, UniProt Q07869); test: Activity at PPARalpha
T2 sequence (Q07869 whole entry): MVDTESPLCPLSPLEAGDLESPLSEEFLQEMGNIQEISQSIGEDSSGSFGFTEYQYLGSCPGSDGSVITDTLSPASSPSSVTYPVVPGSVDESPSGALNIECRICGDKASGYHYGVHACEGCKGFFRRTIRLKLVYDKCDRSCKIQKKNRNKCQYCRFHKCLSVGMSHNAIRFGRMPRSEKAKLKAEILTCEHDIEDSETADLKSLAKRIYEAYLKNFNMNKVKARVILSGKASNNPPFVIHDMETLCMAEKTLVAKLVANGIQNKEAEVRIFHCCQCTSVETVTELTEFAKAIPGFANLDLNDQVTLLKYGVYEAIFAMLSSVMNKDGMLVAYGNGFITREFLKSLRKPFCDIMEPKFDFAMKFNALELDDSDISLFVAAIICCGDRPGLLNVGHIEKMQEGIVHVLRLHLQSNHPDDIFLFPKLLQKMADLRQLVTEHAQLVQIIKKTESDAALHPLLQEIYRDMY

[3] = molecular target: T3, Peroxisome proliferator-activated receptor delta (Homo sapiens, UniProt Q03181); test: Agonist activity at human PPARdelta; type: functional
T3 sequence (Q03181 whole entry): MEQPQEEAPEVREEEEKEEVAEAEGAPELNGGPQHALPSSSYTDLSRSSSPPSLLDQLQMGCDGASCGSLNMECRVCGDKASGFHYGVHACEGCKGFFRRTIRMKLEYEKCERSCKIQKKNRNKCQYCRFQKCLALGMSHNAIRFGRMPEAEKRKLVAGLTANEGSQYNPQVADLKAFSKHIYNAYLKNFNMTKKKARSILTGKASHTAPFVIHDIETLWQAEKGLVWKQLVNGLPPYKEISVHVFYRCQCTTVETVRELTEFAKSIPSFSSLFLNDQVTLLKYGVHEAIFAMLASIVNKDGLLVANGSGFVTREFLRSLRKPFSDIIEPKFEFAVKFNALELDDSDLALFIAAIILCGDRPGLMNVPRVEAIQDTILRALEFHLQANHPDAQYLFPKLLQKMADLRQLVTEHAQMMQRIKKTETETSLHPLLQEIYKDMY

| SMILES | EC50 [1] [nM] | EC50 [2] [nM] | EC50 [3] [nM] |
| --- | --- | --- | --- |
| Cc1cc(SC/C(=C/C#N)COc2ccc(C(F)(F)F)cc2)ccc1OCC(=O)O |  |  | 35.4 |
| C=C(COc1ccc(C(F)(F)F)cc1)CSc1ccc(OCC(=O)O)c(C(F)(F)F)c1 | > 1000 | > 1000 | > 1000 |
| C=C(COc1ccc(C(F)(F)F)cc1)COc1ccc(OCC(=O)O)c(C)c1 | > 1000 | > 1000 |  |
| CCCC(CCC)(COc1ccc(C(F)(F)F)cc1)CSc1ccc(OCC(=O)O)c(C)c1 |  |  | 8.6 |
| Cc1cc(SCC(COc2ccc(C(F)(F)F)cc2)=C(F)F)ccc1OCC(=O)O |  |  | 69.6 |
| C=C(CCc1ccc(C(F)(F)F)cc1)CSc1ccc(OCC(=O)O)c(C)c1 | > 1000 | > 1000 |  |
| C=C(COc1ccc(C(F)(F)F)cc1)CSc1ccc(OCC(=O)O)c(Cl)c1 | > 1000 | > 1000 | 46.7 |
| C=C(CNc1ccc(C(F)(F)F)cc1)CSc1ccc(OCC(=O)O)c(C)c1 | > 1000 | > 1000 | > 500 |
| C=C(COc1ccc(C(F)(F)F)cc1)CSc1ccc(OCC(=O)O)c(C)c1 | > 1000 | > 1000 |  |
| C=C(COc1ccc(C(F)(F)F)cc1)CSc1ccc(OCC(=O)O)c(OC)c1 | > 1000 | > 1000 | > 1000 |

Continued, values first:

| EC50 [1] [nM] | EC50 [2] [nM] | EC50 [3] [nM] | SMILES |
| --- | --- | --- | --- |
| > 1000 | > 1000 |  | C=C(COc1ccc(OC)cc1)CSc1ccc(OCC(=O)O)c(C)c1 |
| > 1000 | > 1000 | 49.8 | C=C(COc1ccc(Cl)c(Cl)c1)CSc1ccc(OCC(=O)O)c(C)c1 |
| > 1000 | > 1000 |  | C=C(CSc1ccc(C(F)(F)F)cc1)CSc1ccc(OCC(=O)O)c(C)c1 |
| > 1000 | > 1000 |  | C=C(COc1ccc(Cl)cc1Cl)CSc1ccc(OCC(=O)O)c(C)c1 |
| > 1000 | > 1000 |  | C=C(COc1ccc(N(C)C)cc1)CSc1ccc(OCC(=O)O)c(C)c1 |
| > 1000 | > 1000 | > 500 | C=C(COc1ccc(Cl)c(C(F)(F)F)c1)CSc1ccc(OCC(=O)O)c(C)c1 |
| > 1000 | > 1000 | > 500 | C=C(COc1ccc(C(F)(F)F)cc1)CSc1ccc(OCC(=O)O)cc1Cl |
| > 1000 | > 1000 |  | C=C(COc1ccccc1)CSc1ccc(OCC(=O)O)c(C)c1 |
| > 1000 | > 1000 | 28.4 | C=C(COc1ccc(OC(F)(F)F)cc1)CSc1ccc(OCC(=O)O)c(C)c1 |
| > 1000 | > 1000 | 65.5 | C=C(COc1ccc(Cl)cc1)CSc1ccc(OCC(=O)O)c(C)c1 |
